Laboratory results published in article PMC4774972, “Activity and Predicted Nephrotoxicity of Synthetic Antibiotics Based on Polymyxin B” (Journal of Medicinal Chemistry, 2016).
≈ marks a conversion by molar mass, not a printed value. Like-named read-outs stand apart in the source and are kept apart here. Bridge positions count the residues as written; N and C are the ends. Square brackets hold non-standard residues; d marks the D form. Peptide text beside a SMILES is read from it. * marks the point of attachment. dDab = NCC[C@@H](N)C(=O)O; hSer = N[C@@H](CCO)C(=O)O; Octanoyl = CCCCCCCC(=O)*; Dab = NCC[C@H](N)C(=O)O

Legend:
[1] = tested on: K. pneumoniae CI Koprana 100650661:1, PmxR; details: MIC K. pneumoniae CI Koprana 100650661:1, PmxR (µg/mL)
[2] = tested on: P. aeruginosa PA9704, PmxR; details: MIC P. aeruginosa PA9704, PmxR (µg/mL)
E. coli ATCC 25922 [3] = details: MIC E. coli ATCC 25922 (µg/mL)
[4] = tested on: K. pneumoniae ATTC BAA-2146, NDM-1 pos; details: MIC K. pneumoniae ATTC BAA-2146, NDM-1 pos (µg/mL)
[5] = tested on: P. aeruginosa FADDI-PA070, PmxR; details: MIC P. aeruginosa FADDI-PA070, PmxR (µg/mL)
[6] = tested on: S. aureus ATCC 25923, MSSA; details: MIC S. aureus ATCC 25923, MSSA (µg/mL)
[7] = tested on: K. pneumoniae CI 138-16357-20362, PmxR; details: MIC K. pneumoniae CI 138-16357-20362, PmxR (µg/mL)
A. baumannii ATCC 19606 [8] = details: MIC A. baumannii ATCC 19606 (µg/mL)
[9] = tested on: K. pneumoniae ATCC 700603, MDR; details: MIC K. pneumoniae ATCC 700603, MDR(µg/mL)
K. pneumoniae ATCC 13883 [10] = details: MIC K. pneumoniae ATCC 13883 (µg/mL)
[11] = tested on: A. baumannii CI Ptyela 100734512:2, PmxR; details: MIC A. baumannii CI Ptyela 100734512:2, PmxR (µg/mL)
P. aeruginosa ATCC 27853 [12] = details: MIC P. aeruginosa ATCC 27853 (µg/mL)
E. coli ATCC 25922 [13] = assay: microbe, parasite or virus in culture; format: cell-based, Escherichia coli; details: ATCC 25922, 18 h
Procedure: (§1) Bacteria were either obtained from American Type Culture Collection (ATCC; Manassas, VA, USA) or independent academic clinical isolate collections, as listed in Table S2. Bacteria were cultured in nutrient broth (NB; Bacto Laboratories, catalog no. 234000) or Muller Hinton broth (MHB; Bacto Laboratories, catalog no. 211443) at 37 °C overnight with shaking (∼180 rpm). A sample of each culture was then diluted 50-fold in fresh MHB and incubated at 37 °C for 1.5–3 h with shaking (∼180 rpm). Compound stock solutions were prepared as 0.64 or 2.56 mg/mL in water. The compounds, at twice the final desired concentration, were serially diluted 2-fold across the wells of 96-well plates (Polystyrene, Corning, catalogue No. 3370). Mid log phase bacterial cultures (after 1.5–3 h incubation) were diluted to a final concentration of 5 × 10^5 colony forming units (CFU)/mL, and 50 μL was added to each well giving a final compound concentration range of 32 μg/mL to 0.015 μg/mL (128–0.06 μg/mL for colistin and polymyxin B against the polymyxin resistant clinical isolates). MICs were determined visually after 18 h of incubation at 37 °C, with the MIC defined as the lowest compound concentration at which no bacterial growth was visible.
(§2) Table S2. Bacterial strains used for Minimum Inhibitory Concentration (MIC) […]
(§3) Organism Strain Strain description Strain Source
(§4) Escherichia coli ATCC 25922 FDA strain Seattle 1946 ATCC
(§5) Klebsiella pneumoniae ATCC 13883 Control strain ATCC
(§6) Klebsiella pneumoniae ATCC 700603 Multi-drug resistant ATCC
(§7) Klebsiella pneumoniae BAA-2146 Metallo-beta-lactamase- ATCC
(§8) Acinetobacter baumannii ATCC 19606 Type strain ATCC
(§9) Pseudomonas aeruginosa ATCC 27853 Type strain ATCC
(§10) Pseudomonas aeruginosa FADDI-PA070 Clinical isolate, Nation and Li labs, polymyxin resistant Monash University
(§11) Clinical isolate, Wang Hengzhuang, Pseudomonas aeruginosa PA9704 polymyxin resistant University Hospital of […]
(§12) Ptyela Clinical isolate, Ilias Karaiskos and Acinetobacter baumannii Carbapenem & Helen Giamarellou
(§13) Clinical isolate, Medicine, Hygeia
(§14) Klebsiella pneumoniae Koprana Carbapenem, & General Hospital, […]
(§15) Clinical isolate, (Instituto Dante […]
(§16) polymyxin resistant Cardiologia, São […]

P. aeruginosa ATCC 27853 [14] = assay: microbe, parasite or virus in culture; format: cell-based, Pseudomonas aeruginosa; details: ATCC 27853, 18 h
Procedure: as §1, §2, §3, §4, §5, §6, §7, §8, §9, §10, §11, §12, §13, §14, §15, §16

HepG2 cells = assay: Cytotoxicity assay (resazurin assay); format: cell-based, human; details: 4000 cells/well, 24 h incubation with compound, fluorescence 560/590
[15] = tested on: P. aeruginosa PA9704, PmxR; format: cell-based, Pseudomonas aeruginosa
Procedure: as §1, §2, §3, §4, §5, §6, §7, §8, §9, §10, §11, §12, §13, §14, §15, §16

[16] = tested on: P. aeruginosa FADDI-PA070, PmxR; format: cell-based, Pseudomonas aeruginosa
Procedure: as §1, §2, §3, §4, §5, §6, §7, §8, §9, §10, §11, §12, §13, §14, §15, §16

A. baumannii ATCC 19606 [17] = format: cell-based, Acinetobacter baumannii; details: ATCC 19606, 18 h
Procedure: as §1, §2, §3, §4, §5, §6, §7, §8, §9, §10, §11, §12, §13, §14, §15, §16

[18] = tested on: A. baumannii CI Ptyela 100734512:2, PmxR; assay: microbe, parasite or virus in culture; format: cell-based, Acinetobacter baumannii
[19] = tested on: S. aureus ATCC 25923, MSSA; assay: microbe, parasite or virus in culture; format: cell-based, Staphylococcus aureus; details: ATCC 25923, 18 h
[20] = tested on: K. pneumoniae CI Koprana 100650661:1, PmxR; assay: microbe, parasite or virus in culture; format: cell-based, Klebsiella pneumoniae
[21] = tested on: K. pneumoniae CI 138-16357-20362, PmxR; assay: microbe, parasite or virus in culture; format: cell-based, Klebsiella pneumoniae
K. pneumoniae ATCC 13883 [22] = assay: microbe, parasite or virus in culture; format: cell-based, Klebsiella pneumoniae; details: ATCC 13883, 18 h
HepG2 = details: CC50 HepG2 (µM)
[23] = tested on: panel of predominantly G-ve bacteria
[24] = tested on: primary human renal proximal tubule epithelial (hPT) cells; assay: Nephrotoxicity assay, GGT release; format: cell-based
Text: Primary human renal proximal tubule epithelial (hPT) cells were isolated and used for in vitro prediction of drug-induced nephrotoxicity[63],[64],[69] by measuring the release of metabolism enzymes, LDH and GGT, as previously described.[70]

[25] = polymyxin resistant clinical isolate, MHB, 5 × 10^5 CFU/mL, 18 h at 37 °C
[26] = carbapenem & polymyxin resistant clinical isolate, MHB, 5 × 10^5 CFU/mL, 18 h at 37 °C

SMILES	MIC [1] [µg/mL]	MIC [2] [µg/mL]	MIC (E. coli ATCC 25922 [3]) [µg/mL]	MIC [5] [µg/mL]	MIC [6] [µg/mL]	MIC [7] [µg/mL]	MIC (A. baumannii ATCC 19606 [8]) [µg/mL]	MIC (K. pneumoniae ATCC 13883 [10]) [µg/mL]	MIC [11] [µg/mL]	MIC E. coli ATCC 25922 (E. coli ATCC 25922 [13]) [µg/mL]	HepG2 - CC50 (HepG2 cells) [µM]	MIC P. aeruginosa PA9704, PmxR [15, 25] [µg/mL]	MIC P. aeruginosa FADDI-PA070, PmxR [16, 25] [µg/mL]	MIC A. baumannii ATCC 19606 (A. baumannii ATCC 19606 [17]) [µg/mL]	MIC A. baumannii CI Ptyela 100734512:2, PmxR [18, 26] [µg/mL]	MIC S. aureus ATCC 25923, MSSA [19] [µg/mL]	MIC K. pneumoniae CI Koprana 100650661:1, PmxR [20, 26] [µg/mL]	MIC K. pneumoniae CI 138-16357-20362, PmxR [21, 26] [µg/mL]	MIC K. pneumoniae ATCC 13883 (K. pneumoniae ATCC 13883 [22]) [µg/mL]	CC50 (HepG2) [µM]	other results
CCCCCCCC(=O)N[C@H](C(=O)NCC(=O)N[C@H]1CCNC(=O)[C@H]([C@@H](C)O)NC(=O)[C@H](CCN)NC(=O)[C@H](CCN)NC(=O)[C@H](CC(C)C)NC(=O)[C@@H](Cc2ccccc2)NC(=O)[C@H](CCN)NC1=O)[C@@H](C)O [Compound 39] (Octanoyl-TG[Dab][Dab][dF]L[Dab][Dab]T; lactam 3-C)	> 32	> 32	4 (≈ 3.82 µM)	> 32	> 32	> 32	> 32	> 32	> 32	4 (≈ 3.82 µM)	>300	>32	>32	>32	>32	>32	>32	>32	>32	> 300	MIC [4]: > 32 µg/mL; MIC [9]: > 32 µg/mL; MIC (P. aeruginosa ATCC 27853 [12]): 16 µg/mL (≈ 15.3 µM); MIC P. aeruginosa ATCC 27853 (P. aeruginosa ATCC 27853 [14]): 16 µg/mL (≈ 15.3 µM)
CCCCCCCC(=O)N[C@@H](CCN)C(=O)N[C@H](C(=O)NCC(=O)N[C@H]1CCNC(=O)[C@H]([C@@H](C)O)NC(=O)[C@H](CCN)NC(=O)[C@H](CCN)NC(=O)[C@H](CC(C)C)NC(=O)[C@@H](Cc2ccccc2)NC(=O)[C@H](CCN)NC1=O)[C@@H](C)O [Compound 38] (Octanoyl-[Dab]TG[Dab][Dab][dF]L[Dab][Dab]T; lactam 4-C)	> 32	> 32	–	> 32	> 64	> 32	–	–	> 32	–	> 300	–	–	–	–	>64	–	–	–	> 300	MIC among the reference strains ([23]; for most strains): 0.5 to 2 µg/mL; MIC P. aeruginosa PA9704, PmxR ([15]; PA9704, PmxR, 18 h): >32 µg/mL; MIC P. aeruginosa FADDI-PA070, PmxR ([16]; FADDI-PA070, PmxR, 18 h): >32 µg/mL; GGT release CC50 [24]: >128 µg/mL; MIC A. baumannii CI Ptyela 100734512:2, PmxR ([18]; CI Ptyela 100734512:2, PmxR, 18 h): >32 µg/mL; MIC K. pneumoniae CI Koprana 100650661:1, PmxR ([20]; CI Koprana 100650661:1, PmxR, 18 h): >32 µg/mL; MIC K. pneumoniae CI 138-16357-20362, PmxR ([21]; CI 138-16357-20362, PmxR, 18 h): >32 µg/mL
CCCCCCCC(=O)N[C@@H](CCN)C(=O)N[C@H](C(=O)N[C@@H](CCN)C(=O)N[C@H]1CCNC(=O)[C@H]([C@@H](C)O)NC(=O)[C@H](CCN)NC(=O)[C@H](CCNC(=O)[C@@H](N)CCC(=O)O)NC(=O)[C@H](CC(C)C)NC(=O)[C@@H](Cc2ccccc2)NC(=O)[C@H](CCN)NC1=O)[C@@H](C)O [Compound 23] (Octanoyl-[Dab]T[Dab][Dab][Dab][dF]L[Dab](Glu)[Dab]T; lactam 4-C)	> 32	> 32	–	> 32	> 32	> 32	–	–	> 32	–	–	–	–	–	–	–	>32	>32	–	> 300	MIC for most strains [23]: 1 to 8 µg/mL
CCCCCCCC(=O)N[C@H](CCN)C(=O)N[C@H](C(=O)NCC(=O)N[C@H]1CCNC(=O)[C@H]([C@@H](C)O)NC(=O)[C@H](CCN)NC(=O)[C@H](CCN)NC(=O)[C@H](CC(C)C)NC(=O)[C@@H](Cc2ccccc2)NC(=O)[C@H](CCN)NC1=O)[C@@H](C)O [Compound 40] (Octanoyl-[dDab]TG[Dab][Dab][dF]L[Dab][Dab]T; lactam 4-C)	> 32	> 32	> 32	> 32	> 64	> 32	> 64	> 32	> 32	>32	>300	>32	>32	>64	>32	>64	>32	>32	>32	> 300	–
CCCCCCCC(=O)N[C@@H](CCN)C(=O)N[C@H](C(=O)N[C@@H](CCN)C(=O)N[C@H]1CCNC(=O)[C@H]([C@@H](C)O)NC(=O)[C@H](CCN)NC(=O)[C@H](CCO)NC(=O)[C@H](CC(C)C)NC(=O)[C@@H](Cc2ccccc2)NC(=O)[C@H](CCN)NC1=O)[C@@H](C)O [Compound 24] (Octanoyl-[Dab]T[Dab][Dab][Dab][dF]L[hSer][Dab]T; lactam 4-C)	> 32	> 32	–	> 32	> 32	> 32	–	> 32	> 32	–	–	–	–	–	–	–	>32	>32	–	> 300	MIC for most strains [23]: 1 to 8 µg/mL
